From patent US7094423B1, “Methods for preparation of lipid-encapsulated therapeutic agents” (INEX Pharmaceuticals Corp., priority 1999, dated 2006)
Several values for one entry are separate records, joined by “and”; a condition that tells them apart may be missing. Equal values may be shown once.

What was measured:
Type in all cases: physicochemical
[1] = Trapping efficiency of oligonucleotide in liposomes after anion exchange chromatography
Protocol: Entrapment procedure. […] At pH 7.5 DODAP becomes charge-neutral and oligonucleotides bound to the external membrane surface are released from their association with the cationic lipid. Unencapsulated oligonucleotides were subsequently removed by anion exchange chromatography on DEAE-sepharose CL-6B columns equilibrated in HBS pH 7.5. When octylglucoside was used in place of ethanol the detergent was added to liposomes (1:1 v/v) to final concentrations ranging from 30–40 mM. All the subsequent steps were performed as described above except for the initial dialysis step against pH 4 citrate buffer, which was extended to 5 hrs. In the following examples, if not otherwise mentioned, DSPC/Chol/PEG-CerC14/DODAP liposomes (20:45:10:25 mol %), c-myc (Seq. ID No. 1), 40% (v/v) ethanol, 300 mM citrate buffer and incubation at 40° C. were used.
Determination of trapping efficiencies: Trapping efficiencies were determined after removal of external oligonucleotides by anion exchange chromatography. Oligonucleotide concentrations were determined by UV-spectroscopy on a Shimadzu UV160U spectrophotometer. The absorbance at 260 nm was measured after solubilization of the samples in chloroform/methanol at a volume ratio of 1:2.1:1 chloroform/methanol/aqueous phase (sample/HBS). If the solution was not completely clear after mixing an additional 50–100 μl of methanol was added. Alternatively, absorbance was read after solubilization of the samples in 100 mM octylglucoside. The antisense concentrations were calculated according to: c [μg/μl]=A260*1 OD260 unit [μg/μl]*dilution factor [μg/μl], where the dilution factor is given by the total assay volume […] divided by the sample volume [μl]. OD260 units were calculated from pairwise extinction coefficients for individual deoxy-nucleotides, which take into account nearest neighbor interactions. 1OD corresponds to 30.97 μg/ml c-myc (Seq. ID. No 1), 33.37 μg/ml h-ICAM-1 (Seq. ID No. 2) and 34 μg/ml EGFR (Seq. ID No. 3). Lipid concentrations were determined by the inorganic phosphorus assay after separation of the lipids from the oligonucleotides by a Bligh and Dyer extraction (Bligh and Dyer, 1959). Briefly, to 250 μl of aqueous phase (sample/HBS) 525 μl methanol and 250 μl chloroform were added to form a clear single phase (aqueous phase/methanol/chlorofrom 1:2.1:1 vol). If the solution was not clear a small amount of methanol was added. Subsequently, 250 μl HBS and an equal volume of chloroform were added. The samples were mixed and centrifuged for 5–10 min at 3000 rpm. […] The chloroform phase was assayed for phospholipid content according to the method of Fiske and Subbarrow (1925). If not otherwise mentioned, trapping efficiencies were expressed as oligonucleotide-to-lipid weight ratios [w/w].

[2] = Final drug/lipid ratio and encapsulation efficiency (E.E.)
Protocol: The procedure of Example 2 was repeated with changes to various parameters to determine which might be critical to the preparation of fully lipid-encapsulated therapeutic agent particles in accordance with the invention. In these experiments, the total oligonucleotide recovery (yield), the total lipid recovery (yield) and the encapsulation efficiency were considered as indications of the quality of the product and the process. Total oligonucleotide recovery was calculated using the formula:
[formula] Encapsulation Efficiency (E.E.) was calculated using the formula:
[formula] The percentage of oligo that is encapsulated (i.e., incorporated in bilayers or entrapped in the interior of the lipid particle) was determined with the OliGreen assay described above.

[3] = Dynamic light scattering: vesicle size; conditions: for Size [nm]: DSPC/Chol/DODAP/PEG-CerC14 20/45/25/10 mol %, initial oligonucleotide-to-lipid 0.23 mg/mg, number-averaged
Protocol: Dynamic light scattering. Sizes were determined by dynamic light scattering using a NICOMP 370 particle sizer (Nicomp Particle Sizing Inc., Santa Barbara, Calif.). Throughout the application, number-averaged sizes are presented, which were obtained by a cumulant fit from the experimental correlation functions. The polydispersity is expressed as the half-width at half-height of a monomodal Gaussian size distribution. The viscosity of the ethanol/citrate buffer was determined using an Ubelohde-type viscometer (Cannon 50). […] The zeta potential was determined by electrophoretic light scattering using a Coulter light scattering instrument (DELSA, Coulter Electronics Inc., FL).

[4] = 2.5 mol % PEG-CerC14, 40% ethanol, initial oligonucleotide-to-lipid 0.037 mol/mol, listed as c-myc
[5] = 5 mol % PEG-CerC14, 40% ethanol, initial oligonucleotide-to-lipid 0.037 mol/mol
[6] = 10 mol % PEG-CerC14, 40% ethanol, initial oligonucleotide-to-lipid 0.037 mol/mol, listed as c-myc
[7] = DSPC/Chol/DODAP liposomes (no modified lipid), 0% EtOH [v/v], molar ODN/lipid 0.035, pH 4
[8] = DSPC/Chol/DODAP liposomes (no modified lipid), 20% EtOH [v/v], molar ODN/lipid 0.035, pH 4
[9] = DSPC/Chol/DODAP liposomes (no modified lipid), 30% EtOH [v/v], molar ODN/lipid 0.035, pH 4
[10] = Ex. 2 procedure, initial drug/lipid ratio 0.1
[11] = Ex. 2 procedure, initial drug/lipid ratio 0.2
[12] = initial EtOH 33%, initial drug/lipid 0.2
[13] = initial EtOH 40%, initial drug/lipid 0.2
[14] = initial EtOH 43%, initial drug/lipid 0.2

In the case of “5′-TAACGTTGAGGGGCAT-3′ (listed as DNA, chemistry not given here) [INX-6295]”, the “% encapsulation” value [1, 4] is reported as 45% and 45.7%, the “% encapsulation” value [1, 5] is reported as 50.9% and the “% encapsulation” value ([1]; 10 mol % PEG-CerC14, 25% ethanol, initial oligonucleotide-to-lipid 0.037 mol/mol, listed as c-myc) is reported as 5%. The “% encapsulation” value [1, 6] was 60% and 56.5%, the final antisense-to-lipid ratio ([1]; 10 mol % PEG-CerC14 liposomes, initial antisense-to-lipid weight ratio 0.29) was 0.16 and the “% encapsulation” value [1, 7] was 4.4%. The “% encapsulation” value [1, 8] was 20.5%, the “% encapsulation” value [1, 9] was 32.5% and the “% encapsulation” value ([1]; OGP 30 mM in place of ethanol, DSPC/Chol/DODAP/PEG-CerC14 20/45/25/10 mol %, initial oligonucleotide-to-lipid 0.23 mg/mg) was 51%. The “% encapsulation” value ([1]; OGP 35 mM in place of ethanol, DSPC/Chol/DODAP/PEG-CerC14 20/45/25/10 mol %, initial oligonucleotide-to-lipid 0.23 mg/mg) was 57%, the “% encapsulation” value ([1]; OGP 40 mM in place of ethanol, DSPC/Chol/DODAP/PEG-CerC14 20/45/25/10 mol %, initial oligonucleotide-to-lipid 0.23 mg/mg) was 55% and the “oligonucleotide molecules per 100 nm liposome” value ([1]; at maximum entrapment) was “approximately 2250”. The E.E. % [2, 10] was 100%, the “Final Drug/Lipid Ratio” value [2, 10] was 0.1 and the “Final Drug/Lipid Ratio” value [2, 11] was 0.17–0.2. The E.E. % [2, 12] was 60%, the “Final Drug/Lipid” value [2, 12] was 0.12 and the E.E. % [2, 13] was 75%. For the same substance, the “Final Drug/Lipid” value [2, 13] was 0.15, the E.E. % [2, 14] was 95% and the “Final Drug/Lipid” value [2, 14] was 0.19. For the same substance, the “Average size [nm]” value ([3]; 2.5 mol % PEG-CerC14, 25% ethanol, initial oligonucleotide-to-lipid 0.037 mol/mol) was 125 ± 35 (108 ± 26) nm, the “Average size [nm]” value [3, 4] was 131±40 nm and 131 ± 40 (108 ± 26) nm and the “Average size [nm]” value [3, 5] was 126 ± 36 (107 ± 22) nm. The “Average size [nm]” value ([3]; 10 mol % PEG-CerC14, 25% ethanol, initial oligonucleotide-to-lipid 0.037 mol/mol) was 92 ± 18 (93 ± 18) nm, the “Average size [nm]” value [3, 6] was 100±26 nm and 100 ± 26 (93 ± 18) nm and the “Average size [nm]” value [3, 7] was 148 ± 56 nm. The “Average size [nm]” value [3, 8] was 226 ± 104 nm, the “Average size [nm]” value [3, 9] was 470 ± 244 nm and the “Vesicle Size (nm)” value [3, 10] was 106 nm. For the same substance, the “Vesicle Size (nm)” value [3, 11] was 119 nm, the “Size [nm]” value ([3]; OGP 30 mM in place of ethanol) was 65 ± 12 nm and the “Size [nm]” value ([3]; OGP 35 mM in place of ethanol) was 100 ± 22 nm. The “Size [nm]” value ([3]; OGP 40 mM in place of ethanol) was 145 ± 38 nm, the “Vesicle Size (nm)” value ([3]; citrate buffer 50 mM, initial drug/lipid 0.1) was 80 nm and the “Vesicle Size (nm)” value ([3]; citrate buffer 100 mM, initial drug/lipid 0.1) was 90 nm. For the same substance, the “Vesicle Size (nm)” value ([3]; citrate buffer 200 mM, initial drug/lipid 0.1) was 93 nm, the “Vesicle Size (nm)” value ([3]; citrate buffer 300 mM, initial drug/lipid 0.1) was 106 nm and the “Vesicle Size (nm)” value ([3]; incubation temp 40 °C, 1 hour) was 109 nm. The “Vesicle Size (nm)” value ([3]; incubation temp 60 °C, 1 hour) was 140 nm, the “Vesicle Size (nm)” value ([3]; incubation temp RT(20–22) °C, 1 hour) was 114 nm and the “Vesicle Size (nm)” value [3, 12] was 115 nm. For the same substance, the “Vesicle Size (nm)” value ([3]; initial EtOH 36%, initial drug/lipid 0.1) was 110 nm, the “Vesicle Size (nm)” value [3, 13] was 114 nm and the “Vesicle Size (nm)” value ([3]; initial EtOH 43%, initial drug/lipid 0.1) was 116 nm. For the same substance, the “Vesicle Size (nm)” value [3, 14] was 105 nm, the “Vesicle Size (nm)” value ([3]; initial EtOH 45%, initial drug/lipid 0.1) was 108 nm and the “size and polydispersity of liposomes” value ([3]; initial ODN-to-lipid weight ratio of 0.2) was 110±30 nm. The “Vesicle Size (nm)” value ([3]; oligo stock 10 mg/ml, initial drug/lipid 0.1) was 106 nm, the “Vesicle Size (nm)” value ([3]; oligo stock 20 mg/ml, initial drug/lipid 0.1) was 112 nm and the “Vesicle Size (nm)” value ([3]; oligo stock 30 mg/ml, initial drug/lipid 0.1) was 110 nm. For the same substance, the “Vesicle Size (nm)” value ([3]; oligo stock 40–50 mg/ml, initial drug/lipid 0.1) was 106 nm.
